Laboratory results reported in PubChem BioAssay AID248 (DTP/NCI, 2004).
Where “and” joins values, the source holds several entries; their conditions need not be identical. Equal entries are not always repeated. Toxic doses and inconclusive results are not listed.

System: L1210 leukemia ip in BDF1 mice, survival T/C
Test: NCI In Vivo Anticancer Drug Screen. Data for tumor model L1210 Leukemia (intraperitoneal) in B6D2F1 (BDF1) mice
Details: endpoint: mean survival time, higher = longer survival
Procedure, shortened: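 In this screen, tumor-bearing mice given compound are compared to those given vehicle, and their survival values are reported as a treated-to-control quotient.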

[1] = dose: 100.0 mg/kg/injection, schedule: Q01DX001 (ip), vehicle: Klucel (hydroxypropylcellulose) (HPC)
[2] = dose: 200.0 mg/kg/injection, schedule: Q01DX001 (ip), vehicle: Klucel (hydroxypropylcellulose) (HPC)
[3] = dose: 400.0 mg/kg/injection, schedule: Q01DX001 (ip), vehicle: Klucel (hydroxypropylcellulose) (HPC)
[4] = dose: 12.5 mg/kg/injection, schedule: Q01DX009 (ip), vehicle: saline
[5] = dose: 25.0 mg/kg/injection, schedule: Q01DX009 (ip), vehicle: saline
[6] = dose: 50.0 mg/kg/injection, schedule: Q01DX009 (ip), vehicle: saline
[7] = dose: 100.0 mg/kg/injection, schedule: Q01DX009 (ip), vehicle: saline with Tween-80
[8] = dose: 100.0 mg/kg/injection, schedule: Q04DX003 (ip), vehicle: saline with Tween-80
[9] = dose: 200.0 mg/kg/injection, schedule: Q01DX009 (ip), vehicle: saline with Tween-80
[10] = dose: 200.0 mg/kg/injection, schedule: Q04DX003 (ip), vehicle: saline with Tween-80
[11] = dose: 100.0 mg/kg/injection, schedule: Q04DX002 (ip), vehicle: saline with Tween-80
[12] = dose: 200.0 mg/kg/injection, schedule: Q04DX002 (ip), vehicle: saline with Tween-80
[13] = dose: 400.0 mg/kg/injection, schedule: Q04DX002 (ip), vehicle: saline with Tween-80
[14] = dose: 100.0 mg/kg/injection, schedule: Q04DX003 (ip), vehicle: Klucel (hydroxypropylcellulose) (HPC)
[15] = dose: 200.0 mg/kg/injection, schedule: Q04DX003 (ip), vehicle: Klucel (hydroxypropylcellulose) (HPC)
[16] = dose: 400.0 mg/kg/injection, schedule: Q04DX003 (ip), vehicle: Klucel (hydroxypropylcellulose) (HPC)
[17] = dose: 6.25 mg/kg/injection, schedule: Q01DX009 (ip), vehicle: saline

## CC(C)=Cc1cc(C)ccc1OC(=O)c1ccc([N+](=O)[O-])cc1
[1]
  T/C: 102 % of control
dose: 100.0 mg/kg/injection, schedule: Q01DX009 (ip), vehicle: Klucel (hydroxypropylcellulose) (HPC)
  T/C: 97 % of control
[2]
  T/C: 91 % of control
dose: 200.0 mg/kg/injection, schedule: Q01DX009 (ip), vehicle: Klucel (hydroxypropylcellulose) (HPC)
  T/C: 101 % of control
[3]
  T/C: 103 % of control
dose: 400.0 mg/kg/injection, schedule: Q01DX009 (ip), vehicle: Klucel (hydroxypropylcellulose) (HPC)
  T/C: 104 % of control

## N=c1ncn(C2OC(CO[P+](N)(O)O)C(O)C2O)c2nc[nH]c12 (stereo not drawn)
dose: 12.5 mg/kg/injection, schedule: Q01DX005 (ip), vehicle: water
  T/C: 110 % of control
dose: 25.0 mg/kg/injection, schedule: Q01DX005 (ip), vehicle: water
  T/C: 106 % of control

## CCCCOCCC1CCNCC1
[4]
  T/C: 97 % of control
dose: 12.5 mg/kg/injection, schedule: Q04DX003 (ip), vehicle: saline
  T/C: 96 % of control
[5]
  T/C: 101 % of control
dose: 25.0 mg/kg/injection, schedule: Q04DX003 (ip), vehicle: saline
  T/C: 97 % of control
[6]
  T/C: 101 % of control
dose: 50.0 mg/kg/injection, schedule: Q04DX003 (ip), vehicle: saline
  T/C: 100 % of control

## O=[N+]([O-])c1cccnc1Oc1cc(Cl)c(Cl)cc1Cl
[7]
  T/C: 107 % of control
[8]
  T/C: 102 % of control
[9]
  T/C: 107 % of control
[10]
  T/C: 93 % of control
dose: 400.0 mg/kg/injection, schedule: Q01DX009 (ip), vehicle: saline with Tween-80
  T/C: 100 % of control
dose: 400.0 mg/kg/injection, schedule: Q04DX003 (ip), vehicle: saline with Tween-80
  T/C: 91 % of control

## C1CCC(C2CCC(C3CCCC3)C2)C1 (stereo not drawn)
[11]
  T/C: 91 % of control
[12]
  T/C: 94 % of control
[13]
  T/C: 91 % of control

## C/C=C\c1ccc(OC(=O)c2ccc([N+](=O)[O-])cc2)c(OC)c1
dose: 100.0 mg/kg/injection, schedule: Q01DX001 (ip), vehicle: other
  T/C: 97 % of control
dose: 200.0 mg/kg/injection, schedule: Q01DX001 (ip), vehicle: other
  T/C: 106 % of control
dose: 400.0 mg/kg/injection, schedule: Q01DX001 (ip), vehicle: other
  T/C: 94 % of control

## NSc1ccc(N)s1
[11]
  T/C: 108 % of control
[12]
  T/C: 101 % of control
[13]
  T/C: 108 % of control

## CC(=O)OC1CCC2(C)C(CCC3C2CCC2(C)C3C(c3ccccc3Cl)C3C=NN(c4ccccc4)C32C(=O)c2ccccc2)C1 (stereo not drawn)
dose: 25.0 mg/kg/injection, schedule: Q04DX002 (ip), vehicle: Klucel (hydroxypropylcellulose) (HPC)
  T/C: 97 % of control
dose: 50.0 mg/kg/injection, schedule: Q04DX002 (ip), vehicle: Klucel (hydroxypropylcellulose) (HPC)
  T/C: 94 % of control
dose: 100.0 mg/kg/injection, schedule: Q04DX002 (ip), vehicle: Klucel (hydroxypropylcellulose) (HPC)
  T/C: 94 % of control

## O=NN(CCCl)C(=O)NC1(C(=O)O)CCCC1
dose: 15.0 mg/kg/injection, schedule: Q01DX001 (ip), vehicle: saline with Tween-80
  T/C: 109 % of control
dose: 23.0 mg/kg/injection, schedule: Q01DX001 (ip), vehicle: saline with Tween-80
  T/C: 113 % of control
dose: 50.0 mg/kg/injection, schedule: Q01DX001 (ip), vehicle: Klucel (hydroxypropylcellulose) (HPC)
  T/C: 121 % of control
dose: 75.0 mg/kg/injection, schedule: Q01DX001 (ip), vehicle: Klucel (hydroxypropylcellulose) (HPC)
  T/C: 172 % of control
dose: 75.0 mg/kg/injection, schedule: Q01DX001 (ip), vehicle: carboxymethylcellulose (CMC)
  T/C: 162 % of control
dose: 80.0 mg/kg/injection, schedule: Q01DX001 (ip), vehicle: saline with Tween-80
  T/C: 152 % of control
dose: 112.0 mg/kg/injection, schedule: Q01DX001 (ip), vehicle: Klucel (hydroxypropylcellulose) (HPC)
  T/C: 243 % of control
dose: 112.0 mg/kg/injection, schedule: Q01DX001 (ip), vehicle: carboxymethylcellulose (CMC)
  T/C: 168 % of control
dose: 119.0 mg/kg/injection, schedule: Q01DX001 (ip), vehicle: saline with Tween-80
  T/C: 252 % of control
dose: 168.0 mg/kg/injection, schedule: Q01DX001 (ip), vehicle: Klucel (hydroxypropylcellulose) (HPC)
  T/C: 310 % of control
dose: 168.0 mg/kg/injection, schedule: Q01DX001 (ip), vehicle: carboxymethylcellulose (CMC)
  T/C: 272 % of control
dose: 178.0 mg/kg/injection, schedule: Q01DX001 (ip), vehicle: saline with Tween-80
  T/C: 274 % of control
dose: 252.0 mg/kg/injection, schedule: Q01DX001 (ip), vehicle: Klucel (hydroxypropylcellulose) (HPC)
  T/C: 106 % of control
dose: 252.0 mg/kg/injection, schedule: Q01DX001 (ip), vehicle: carboxymethylcellulose (CMC)
  T/C: 89 % of control
dose: 266.0 mg/kg/injection, schedule: Q01DX001 (ip), vehicle: saline with Tween-80
  T/C: 246 % of control

## COC(=O)c1ccccc1N=Nc1ccc(O)c(C(C)C)c1
dose: 25.0 mg/kg/injection, schedule: Q01DX009 (ip), vehicle: Klucel (hydroxypropylcellulose) (HPC)
  T/C: 98 % of control
dose: 50.0 mg/kg/injection, schedule: Q01DX009 (ip), vehicle: Klucel (hydroxypropylcellulose) (HPC)
  T/C: 98 % of control
[14]
  T/C: 97 % of control
[15]
  T/C: 100 % of control
[16]
  T/C: 98 % of control

## C=CC[Se]c1ncnc2c1c(C#N)cn2C1OC(CO)C(O)C1O (stereo not drawn)
[17]
  T/C: 103 % of control
[4]
  T/C: 107 % of control
[5]
  T/C: 92 % of control

## CC1CN(c2ccc([N+](=O)[O-])cc2)C(C)CN1 (stereo not drawn)
[17]
  T/C: 102 % of control
[4]
  T/C: 91 % of control
[5]
  T/C: 102 % of control
[6]
  T/C: 97 % of control and 101 % of control
dose: 100.0 mg/kg/injection, schedule: Q01DX009 (ip), vehicle: saline
  T/C: 88 % of control
dose: 100.0 mg/kg/injection, schedule: Q04DX003 (ip), vehicle: saline
  T/C: 98 % of control
dose: 200.0 mg/kg/injection, schedule: Q04DX003 (ip), vehicle: saline
  T/C: 100 % of control

## c1ccc2c3c([nH]c2c1)C1CC2CCCCC2CN1CC3 (stereo not drawn)
dose: 75.0 mg/kg/injection, schedule: Q01DX001 (ip), vehicle: saline
  T/C: 107 % of control
dose: 150.0 mg/kg/injection, schedule: Q01DX001 (ip), vehicle: saline
  T/C: 109 % of control

## CC1=NCCc2c1cc1c([nH]c3ccccc31)c2C
dose: 14.0 mg/kg/injection, schedule: Q01DX Z (ip), vehicle: carboxymethylcellulose (CMC)
  T/C: 106 % of control
dose: 28.0 mg/kg/injection, schedule: Q01DX Z (ip), vehicle: carboxymethylcellulose (CMC)
  T/C: 107 % of control
dose: 44.0 mg/kg/injection, schedule: Q01DX009 (ip), vehicle: other
  T/C: 121 % of control
dose: 44.0 mg/kg/injection, schedule: Q01DX009 (ip), vehicle: saline with Tween-80
  T/C: 115 % of control
dose: 50.0 mg/kg/injection, schedule: Q01DX009 (ip), vehicle: saline with Tween-80
  T/C: 101 % of control
dose: 56.0 mg/kg/injection, schedule: Q01DX Z (ip), vehicle: carboxymethylcellulose (CMC)
  T/C: 113 % of control
dose: 100.0 mg/kg/injection, schedule: Q01DX009 (ip), vehicle: other
  T/C: 151 % of control
[7]
  T/C: 151 % of control
dose: 100.0 mg/kg/injection, schedule: Q04DX003 (ip), vehicle: acetone
  T/C: 110 % of control
[8]
  T/C: 110 % of control
dose: 112.0 mg/kg/injection, schedule: Q01DX Z (ip), vehicle: carboxymethylcellulose (CMC)
  T/C: 123 % of control
dose: 150.0 mg/kg/injection, schedule: Q01DX009 (ip), vehicle: saline with Tween-80
  T/C: 178 % of control
dose: 177.0 mg/kg/injection, schedule: Q04DX003 (ip), vehicle: saline with Tween-80
  T/C: 122 % of control
[9]
  T/C: 101 % of control
dose: 200.0 mg/kg/injection, schedule: Q04DX003 (ip), vehicle: acetone
  T/C: 102 % of control
[10]
  T/C: 115 % of control
dose: 210.0 mg/kg/injection, schedule: Q01DX009 (ip), vehicle: other
  T/C: 98 % of control
dose: 266.0 mg/kg/injection, schedule: Q04DX003 (ip), vehicle: saline with Tween-80
  T/C: 124 % of control

## Cc1ccc(N=Cc2cccc([N+](=O)[O-])c2)cc1
[1]
  T/C: 100 % of control
[14]
  T/C: 98 % of control
[2]
  T/C: 94 % of control
[15]
  T/C: 100 % of control
[3]
  T/C: 91 % of control
[16]
  T/C: 103 % of control
